From patent US11117901B2, “Substituted pyrazolo[4,3-h]quinazolines as choline kinase inhibitors” (NERVIANO MEDICAL SCIENCES S.R.L., priority 2017, dated 2021)
pIC50: −log10 of the molar value.

Tests used:
[1] = target: T1, Δ49N-hChoKα (Homo sapiens, UniProt P35790); experiment: Biochemical kinase inhibition assay (Kinase-Glo luminescent) on Δ49N-hChoKα; details: recombinant Δ49N-hChoKα 2.2 nM, ATP 5 μM, choline 5 μM, 60 min rt; read-out: ChoKα IC50
T1 construct: cDNA fragment 362-1534, corresponding to aminoacids 50 457; GST (N, cleaved yes); PreScission Protease recognition site (N); made in house; host or cells: Escherichia coli BL21pLysS (DE3)
T1 sequence (P35790 50-439 isoform P35790-2): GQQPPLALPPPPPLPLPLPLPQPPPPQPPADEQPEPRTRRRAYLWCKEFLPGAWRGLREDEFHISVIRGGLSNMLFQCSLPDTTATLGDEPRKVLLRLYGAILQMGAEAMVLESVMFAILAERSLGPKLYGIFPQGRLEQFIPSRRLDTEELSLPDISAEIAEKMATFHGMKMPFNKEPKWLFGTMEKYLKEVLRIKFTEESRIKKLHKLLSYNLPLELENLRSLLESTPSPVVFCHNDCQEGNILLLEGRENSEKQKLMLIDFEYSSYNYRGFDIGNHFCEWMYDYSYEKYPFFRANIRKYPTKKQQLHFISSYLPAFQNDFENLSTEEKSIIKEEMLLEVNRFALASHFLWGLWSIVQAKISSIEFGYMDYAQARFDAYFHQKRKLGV
How it was run: (§1)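 Kinase-Glo residual-ATP luminescence with in-house E. coli-expressed, tag-cleaved enzymes: Δ49N-hChoKα 2.2 nM with 5 μM choline; hChoKβ FL 30 nM with 20 μM choline. Both used 5 μM ATP, 60 min at room temperature, 1% DMSO, pH 7.5 Hepes buffer. IC50 from 4-parameter fits of ten 3-fold dilutions from 10 μM.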

[2] = target: T2, hChoKβ FL (Homo sapiens, UniProt Q9Y259); experiment: Biochemical kinase inhibition assay (Kinase-Glo luminescent) on hChoKβ FL; details: recombinant hChoKβ FL 30 nM, ATP 5 μM, choline 20 μM, 60 min rt; read-out: ChoKβ IC50
T2 construct: hChoKβ full length (FL), corresponding to aminoacids 2-395; GST (N, cleaved yes); PreScission Protease recognition site (N); made in house; host or cells: Escherichia coli BL21pLysS (DE3)
T2 sequence (Q9Y259 2-395): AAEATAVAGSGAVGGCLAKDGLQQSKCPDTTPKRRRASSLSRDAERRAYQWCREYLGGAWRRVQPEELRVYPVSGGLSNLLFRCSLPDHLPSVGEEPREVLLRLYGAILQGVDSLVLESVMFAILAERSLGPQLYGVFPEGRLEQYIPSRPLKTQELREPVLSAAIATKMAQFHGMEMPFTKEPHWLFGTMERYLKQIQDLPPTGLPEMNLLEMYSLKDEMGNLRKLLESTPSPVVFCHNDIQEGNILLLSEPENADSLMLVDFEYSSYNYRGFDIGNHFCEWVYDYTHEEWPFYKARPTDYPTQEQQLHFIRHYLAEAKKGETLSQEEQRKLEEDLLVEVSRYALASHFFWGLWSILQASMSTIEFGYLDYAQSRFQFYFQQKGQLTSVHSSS
How it was run: as §1

Structure (SMILES) | pIC50 [1] | pIC50 [2]
CC1CCN([C@H]2CC[C@H](OCc3csc(NC(=O)c4n[nH]c5c4C(C)(C)Cc4cnc(N)nc4-5)n3)CC2)CC1 [compound 170] | 7.77 | 6.05
Cc1csc(NC(=O)c2nn(CCO)c3c2C(C)(C)Cc2cnc(N)nc2-3)n1 [compound 182] | 6.34 | < 5.00
CC1(C)Cc2cnc(N)nc2-c2[nH]nc(C(=O)Nc3nc(C(F)(F)C(=O)N4CCC(N5CCCCC5)CC4)cs3)c21 [compound 183] | 7.89 | 6.18
CC1(C)Cc2cnc(N)nc2-c2[nH]nc(C(=O)Nc3nc(COC4CCN(C5CCC(F)(F)CC5)CC4)cs3)c21 [compound 189] | 7.51 | 5.81
CC1(C)CCC(N2CCC(OCc3csc(NC(=O)c4n[nH]c5c4C(C)(C)Cc4cnc(N)nc4-5)n3)CC2)CC1 [compound 190] | 8.10 | 6.26
CC1CCN(C2CCN(C(=O)C(F)(F)c3csc(NC(=O)c4n[nH]c5c4C(C)(C)Cc4cnc(N)nc4-5)n3)CC2)CC1 [compound 191] | 8.15 | 6.52
CC1(C)Cc2cnc(N)nc2-c2[nH]nc(C(=O)Nc3nc(COC4CCN(C5CCCCCC5)CC4)cs3)c21 [compound 209] | 8.30 | 6.64
CC1CCN(C2CCN(C(=O)Cc3csc(NC(=O)c4c5c(nn4C)-c4nc(N)ncc4CC5(C)C)n3)CC2)CC1 [compound 211] | 6.97 | < 5.00
CC1(C)Cc2cnc(N)nc2-c2[nH]nc(C(=O)Nc3nc(COC4CCN(CC5CCCCC5)CC4)cs3)c21 [compound 212] | 8.10 | 6.34
CC1(C)Cc2cnc(N)nc2-c2[nH]nc(C(=O)Nc3nc(COC4CCN(Cc5ccccc5)CC4)cs3)c21 [compound 213] | 7.80 | 6.35
Cn1nc(C(=O)Nc2nc(COC3CCN(C4CCCCCC4)CC3)cs2)c2c1-c1nc(N)ncc1CC2(C)C [compound 217] | 7.74 | 5.45
CC1(C)CCN(C2CCN(C(=O)Cc3csc(NC(=O)c4n[nH]c5c4C(C)(C)Cc4cnc(N)nc4-5)n3)CC2)CC1 [compound 218] | 8.70 | 6.60
CC1(C)CCCN(C2CCN(C(=O)Cc3csc(NC(=O)c4n[nH]c5c4C(C)(C)Cc4cnc(N)nc4-5)n3)CC2)C1 [compound 219] | 8.70 | 6.53
CC(C)=CC(=O)CC(C)(C)NC(=O)Cc1csc(NC(=O)c2n[nH]c3c2C(C)(C)Cc2cnc(N)nc2-3)n1 [compound 220] | 7.52 | 5.86
CC1(C)CCC(N2CCC(OCc3csc(NC(=O)c4n[nH]c5c4C(C)(C)Cc4cnc(N)nc4-5)n3)CC2)CC1 [compound 221] | 8.00 | 6.11
CC1(C)Cc2cnc(N)nc2-c2[nH]nc(C(=O)Nc3nc(CC(=O)N4CCC(N5CCCC(F)(F)C5)CC4)cs3)c21 [compound 222] | 8.00 | 5.78
CC1(C)Cc2cnc(N)nc2-c2[nH]nc(C(=O)Nc3nc(COC4CCN(C5CCCCCC5)CC4)cs3)c21 [compound 223] | 8.40 | 6.74
CC1CCCN(C2CCN(C(=O)Cc3csc(NC(=O)c4n[nH]c5c4C(C)(C)Cc4cnc(N)nc4-5)n3)CC2)C1 (centres unmarked) [compound 224] | 8.30 | 6.67
CC1CCN(C2CCN(C(=O)Cc3csc(NC(=O)c4nn(C)c5c4CC(C)(C)c4cnc(N)nc4-5)n3)CC2)CC1 [compound 225] | 8.05 | 5.65
CC1(OCc2csc(NC(=O)c3n[nH]c4c3C(C)(C)Cc3cnc(N)nc3-4)n2)CCN(C2CCCCCC2)CC1 [compound 226] | 7.70 | 6.42
CC1CCN(C2(C)CCN(C(=O)Cc3csc(NC(=O)c4n[nH]c5c4C(C)(C)Cc4cnc(N)nc4-5)n3)CC2)CC1 [compound 227] | 8.70 | 7.59
CC1CCN(C2CCN(C(=O)c3ccc4nc(NC(=O)c5n[nH]c6c5C(C)(C)Cc5cnc(N)nc5-6)sc4c3)CC2)CC1 [compound 228] | 8.05 | 6.02
